The target in experiment [1] is T1, non-lysosomal-β-glucocerebrosidase (Homo sapiens, UniProt Q9HCG7).
T1 construct: whole cell extracts of MCF7(a human breast carcinoma cell line) was used as the source of the enzyme; endogenous in cells; host or cells: MCF7 whole cell extract
T1 sequence (Q9HCG7 1-927): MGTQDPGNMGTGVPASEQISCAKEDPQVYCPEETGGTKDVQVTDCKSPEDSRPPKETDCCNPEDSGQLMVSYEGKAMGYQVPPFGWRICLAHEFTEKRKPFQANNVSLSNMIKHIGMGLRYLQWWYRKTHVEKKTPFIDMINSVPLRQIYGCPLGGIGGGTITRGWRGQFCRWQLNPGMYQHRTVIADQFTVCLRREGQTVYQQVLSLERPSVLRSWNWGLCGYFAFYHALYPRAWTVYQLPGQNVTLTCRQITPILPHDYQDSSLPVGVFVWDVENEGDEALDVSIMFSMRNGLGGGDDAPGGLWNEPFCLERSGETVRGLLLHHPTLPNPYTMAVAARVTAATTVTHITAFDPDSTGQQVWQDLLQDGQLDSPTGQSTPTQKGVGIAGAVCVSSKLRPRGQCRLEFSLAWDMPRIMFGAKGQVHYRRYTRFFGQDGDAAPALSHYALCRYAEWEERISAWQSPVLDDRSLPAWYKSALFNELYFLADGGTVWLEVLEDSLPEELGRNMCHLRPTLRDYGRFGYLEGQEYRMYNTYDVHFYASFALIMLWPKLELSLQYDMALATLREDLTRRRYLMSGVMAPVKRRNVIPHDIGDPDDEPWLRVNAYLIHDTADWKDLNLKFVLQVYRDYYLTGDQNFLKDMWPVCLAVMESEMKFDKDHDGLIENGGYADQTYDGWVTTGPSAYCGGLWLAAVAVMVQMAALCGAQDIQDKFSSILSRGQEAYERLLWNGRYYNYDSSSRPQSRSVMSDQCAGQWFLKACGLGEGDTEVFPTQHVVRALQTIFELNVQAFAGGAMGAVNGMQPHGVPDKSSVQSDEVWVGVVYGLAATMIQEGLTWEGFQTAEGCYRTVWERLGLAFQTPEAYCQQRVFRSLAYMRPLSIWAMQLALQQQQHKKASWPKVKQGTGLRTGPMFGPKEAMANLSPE
The experiment can be described thus: Inhibition of non-lysosomal-β-glucocerebrosidase. The class given is biochemical. As to conditions: whole cell extracts of MCF7 as enzyme source; 4-MU β-glucoside substrate; pH 5.8.

For experiment [2], the target named is T2, human recombinant GCS expressed in insect cells (Homo sapiens, UniProt Q16739).
T2 construct: made in house; host or cells: insect cells
T2 sequence (Q16739 1-394): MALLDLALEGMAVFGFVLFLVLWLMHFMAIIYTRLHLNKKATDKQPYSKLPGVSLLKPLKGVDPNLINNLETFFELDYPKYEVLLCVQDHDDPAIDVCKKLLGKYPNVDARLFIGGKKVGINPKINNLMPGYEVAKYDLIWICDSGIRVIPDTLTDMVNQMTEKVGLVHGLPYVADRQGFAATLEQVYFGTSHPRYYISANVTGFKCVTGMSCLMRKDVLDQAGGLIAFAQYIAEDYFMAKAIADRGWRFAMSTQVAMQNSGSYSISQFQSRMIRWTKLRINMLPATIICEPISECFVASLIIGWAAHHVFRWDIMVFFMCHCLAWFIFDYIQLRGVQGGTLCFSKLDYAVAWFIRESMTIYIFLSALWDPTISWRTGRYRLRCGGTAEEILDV
Description: Inhibition of GCS. The class given is biochemical.

Experiment [3] deals with T3, human GCS (Homo sapiens, UniProt Q16739).
T3 construct: Human mammary epithelial cells (MCF-7) were cultured for 5-7 days, with varying concentrations of a compound of the invention; endogenous in cells; host or cells: MCF-7
T3 sequence (Q16739 1-394): T2 sequence (Q16739 1-394)
The experiment can be described thus: Cell-based IC50 for GCS inhibition by measuring glucosylceramide (GlcCer) depletion. As to conditions: MCF-7 cells cultured for 5-7 days; GlcCer quantified by HPTLC; read-out: Inhibition of GCS Cellular-based (IC50 μM).

[4] abbreviates: human recombinant GCS expressed in insect cells, read-out: Inhibition of GCS (IC50).

SMILES strings stand for the structures. Where two headings read alike, the source gives them in different places.

The IC50 is the point on the concentration scale where inhibition reaches its midpoint. As for `COc1cc(OCc2ccccc2)ccc1CN1C[C@H](O)[C@@H](O)[C@H](O)[C@@H]1CO` [Example 1, 3,4,5-Piperidinetriol, 2-(hydroxymethyl)-1-[[2-methoxy-4-(phenylmethoxy)phenyl]methyl]-, (2S,3R,4R,5S)], the IC50 in experiment [1] was determined as 110 nM; in experiment [2] (setting [4]), 2700 nM.
Regarding `CN(C)c1ccc(CN2C[C@H](O)[C@@H](O)[C@H](O)[C@@H]2CO)c(F)c1C#N` [Example 3, 3,4,5-Piperidinetriol, 1-[(3-cyano-4-dimethylamino-2-fluorophenyl)methyl]-2-(hydroxymethyl)-, (2S,3R,4R,5S)], the values for the IC50 in experiment [1] and in experiment [2] (setting [4]) were 750 nM and 1800 nM, respectively.
Regarding `O=C(NCc1ccc(F)cc1)c1ccc(CN2C[C@H](O)[C@@H](O)[C@H](O)[C@@H]2CO)cc1` [Example 6, Benzamide, N-[(4-fluorophenyl)methyl]-4-[[(2S,3R,4R,5S)-3,4,5-trihydroxy-2-(hydroxymethyl)-1-piperldinyl]methyl]-,], the IC50 in experiment [1] amounted to 69 nM; in experiment [2] (setting [4]), 670 nM.
The matching figures for `CC(NC(=O)c1ccc(CN2C[C@H](O)[C@@H](O)[C@H](O)[C@@H]2CO)cc1)c1ccccc1` (stereo partly drawn) [Example 7, Benzamide, N-[1-phenylethyl]4-[[(2S,3R,4R,5S)-3,4,5-trihydroxy-2-(hydroxymethyl)-1-piperidinyl]-methyl]-,]: 84 nM and 280 nM.
With `C[C@@H](NC(=O)c1ccc(CN2C[C@H](O)[C@@H](O)[C@H](O)[C@@H]2CO)cc1)c1ccc(F)cc1` [Example 8, Benzamide, N-[1-(R)-(4-fluorophenyl)ethyl]4-[[(2S,3R,4R,5S)-3,4,5-trihydroxy-2-(hydroxymethyl)-1-piperidinyl]methyl]-,], the IC50 in experiment [1] came out at 42 nM; in experiment [2] (setting [4]) it was 490 nM.
For `OC[C@H]1[C@@H](O)[C@H](O)[C@@H](O)CN1Cc1ccc(OCc2ccccc2)c(Cl)c1` [Example 10, 3,4,5-Piperidinetriol, 2-(hydroxymethyl)-1-[[3-chloro-4-(phenylmethoxy)phenyl]methyl]-, (2S,3R,4R,5S)], in that order: 5 nM and 320 nM.
`OC[C@H]1[C@@H](O)[C@H](O)[C@@H](O)CN1Cc1ccc(OCc2ccccc2)cc1` [Example 11, 3,4,5-Piperidinetriol, 2-(hydroxymethyl)-1-[[4-(phenylmethoxy)phenyl]methyl]-, (2S,3R,4R,5S)]: the figures for the IC50 in experiment [1], in experiment [2] (setting [4]) and in experiment [3] were 3 nM, 210 nM and < 0.01 µM, respectively.
Take `OC[C@H]1[C@@H](O)[C@H](O)[C@@H](O)CN1Cc1ccc(/C=C/c2ccccc2)cc1` [Example 13, 3,4,5-Piperidinetriol, 1-[(4-trans-styrylphenyl)methyl]-2-(hydroxymethyl)-, (2S,3R,4R,5S)]: the IC50 turned out to be 2 nM in experiment [1] and 290 nM in experiment [2] (setting [4]).
The matching figures for `O=C(c1ccc(CN2C[C@H](O)[C@@H](O)[C@H](O)[C@@H]2CO)cc1)N1CCCc2ccccc21` [Example 14]: 19 nM and 1400 nM.
For `CCN(CC)c1ccc(CN2C[C@H](O)[C@@H](O)[C@H](O)[C@@H]2CO)c(F)c1C#N` [Example 18, 3,4,5-Piperidinetriol, 2-(hydroxymethyl)-1-[(3-cyano-4-(diethylamino)-2-fluorophenyl)-methyl]-, (2S,3R,4R,5S)], in that order: 120 nM and 550 nM.
The matching figures for `OC[C@H]1[C@@H](O)[C@H](O)[C@@H](O)CN1Cc1ccc(Oc2ccccc2)cc1` [Example 19, 3,4,5-Piperidinetriol, 2-(hydroxymethyl)-1-[(4-phenoxyphenyl)methyl]-, (2S,3R,4R,5S)]: 4 nM and 410 nM.
Regarding `OC[C@H]1[C@@H](O)[C@H](O)[C@@H](O)CN1Cc1ccc2c(c1)OCCO2` [Example 20, 3,4,5-Piperidinetriol, 1-[(3,4-ethylenedioxyphenyl)methyl]-2-(hydroxymethyl)-, (2S,3R,4R,5S)], the values for the half-inhibitory concentration (IC50) in experiment [1] and in experiment [2] (setting [4]) were 55 nM and 2500 nM, respectively.
On to `O=S(=O)(Nc1ccc(CN2C[C@H](O)[C@@H](O)[C@H](O)[C@@H]2CO)cc1)c1ccccc1` [Example 22, Benzenesulfonamide, N-[4-[[(2S,3S,4R,5S)-3,4,5-trihydroxy-2-(hydroxymethyl)-1-piperidinyl]methyl]-phenyl]-,], for which the IC50 in experiment [1] and in experiment [2] was 910 nM in each case.

The record behind these values is US7985760B2, “Piperidinetriol derivatives as inhibitors of glycosyceramid synthase” (Actelion Pharmaceuticals Ltd., priority 2002, dated 2011).
